Source: patent US20230076411A1, “LASSO PEPTIDES FOR TREATMENT OF CANCER” (Lassogen, Inc., priority 2020, published 2023)
Positions of bridges follow the written chain, without caps; N, C: chain ends. Non-standard residues stand in square brackets, D forms with d. Residues, ends and D or L forms follow the SMILES beside them. No end group written: not given here. Trp(7-OH) = N[C@@H](Cc1c[nH]c2c(O)cccc12)C(=O)O; 2Nal = N[C@@H](Cc1ccc2ccccc2c1)C(=O)O

Key:
[1] = system: human melanoma cell lines RPMI-7951, SK MEL 28, SK MEL 31, SK MEL 24, A375; test: Melanoma cell growth inhibition (Cell Titer-Glo 2.0 Luminescent Cell Viability Assay); assay type: cell-based; details: 72 hours incubation with compounds
Text: The Cell Titer-Glo® 2.0 Luminescent Cell Viability Assay is a sensitive homogeneous method to determine the number of viable cells in culture. Detection is based on using the luciferase reaction to measure the amount of ATP from viable cells. The amount of ATP in cells correlates with cell viability. Within minutes after a loss of membrane integrity, cells lose the ability to synthesize ATP, and endogenous ATPases destroy any remaining ATP; thus the levels of ATP fall precipitously. The Cell Titer-Glo® 2.0 Reagent does three things upon addition to cells. It lyses cell membranes to release ATP; it inhibits endogenous ATPases, and it provides luciferin, luciferase and other reagents necessary to measure ATP using a bioluminescent reaction. The unique properties of a proprietary stable luciferase. There is a linear relationship (r2=0.99) between the luminescent signal and the number of cells from 0 to 50.000 cells per well. […]
Conditions: 37° C., air 95%; HEPA-filtered carbon dioxide (CO2) 5%, humidified atmosphere. • Cells are grown in 175 cm^2 flasks to 80-90% of confluency. • Culture media are aspirated and cell layer is briefly rinsed with Versen solution to remove all traces of serum. • 2 mL of Accutase is added to cells. • Flasks are returned to incubator for 5 min to allow cell detachment. • Add 6.0 mL of complete growth medium. • Single cell suspension is created by gently pipetting. • Cells are counted using a Hematocytometer and a suspension with the desired cell concentration is prepared. […]
Stock solutions (70 μL) are diluted with cell culture media to produce 500× serial dilutions and 10 of final compound dilutions are added to cells in assay plates to screen a series of 10 doses starting at […]. […] Luminescence intensity is measured for each well using the Tecan M 1000 microplate reader after 5 min of incubation with the Cell Titer-Glo® 2.0. The number of viable cells in culture is determined based on quantitation of the ATP present in each culture well. […] P values are calculated by using the Student's t test for absolute values. […]

[2] = target: human recombinant endothelin B receptor (ETBR) (human) (UniProt P24530); test: not stated on the sheet or in the legend; the receptor source, species and competing ligand are not given, and the value may come from the literature
[3] = target: T1, human recombinant ETB receptor (ETBR) (Homo sapiens, UniProt P24530); test: ET-1 Receptor Binding Assay ([125I]ET-1, CHO cell membranes expressing ETBR)
T1 construct: expressed in transfected cells; host or cells: CHO cells, stably transfected (vector pME18S-FL3); membranes prepared from them
T1 sequence (P24530 27-442): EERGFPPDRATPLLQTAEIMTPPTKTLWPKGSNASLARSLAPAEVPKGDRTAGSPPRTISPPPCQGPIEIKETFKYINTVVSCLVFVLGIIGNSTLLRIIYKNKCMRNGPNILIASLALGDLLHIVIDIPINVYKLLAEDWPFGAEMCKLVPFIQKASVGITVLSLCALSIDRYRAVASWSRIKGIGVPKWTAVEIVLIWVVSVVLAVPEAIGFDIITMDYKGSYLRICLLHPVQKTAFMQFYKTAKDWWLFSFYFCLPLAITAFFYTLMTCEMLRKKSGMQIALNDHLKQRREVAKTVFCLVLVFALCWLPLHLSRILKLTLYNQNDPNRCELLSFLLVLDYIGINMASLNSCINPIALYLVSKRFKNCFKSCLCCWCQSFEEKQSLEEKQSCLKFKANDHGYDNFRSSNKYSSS
Experimental: Preparation of Membranes. CHO cell membranes are prepared by washing ETAR- or ETBR-transfected cells with phosphate buffered saline and centrifugation. […] The homogenates are centrifuged at 8,000×g for 10 minutes and supernatants are then centrifuged at 40,000×g for 1 hour at 4° C. The pellets are homogenized in buffer A and recentrifuged at 40,000×g for 1 hour.
(§1) The glass filters are washed three times with cold 50 mM Tris-HCl buffer containing 1 mM EDTA. The radioactivity on the washed filter is measured by using a Packard γ counter.

ETBR receptors = target: T2, ETBR receptors (Homo sapiens, UniProt P24530); details: physiological concentrations; cited from earlier work
T2 sequence (P24530 27-442): T1 sequence (P24530 27-442)

[4] = target: T3, endothelin B receptor (ETBR) (Homo sapiens, UniProt P24530); test: IC50 of BQ-788 against ETAR and ETBR (FIG. 3B); assay type: binding; details: from IC50 against ETAR and ETBR
T3 sequence (P24530 27-442): T1 sequence (P24530 27-442)

[5] = target: endothelin A receptor (ETAR) (Homo sapiens, UniProt P25101); test: ETAR IC50 (nM)
Text: Table printed on a drawing sheet, FIG. 3
Head of the field: ETAR IC50 (nM)

[6] = target: T4, human recombinant endothelin B receptor (ETBR) (human, UniProt P24530 27-442); test: displacement of [125I]ET-1 from CHO-ETBR membranes, filtration
T4 construct: whole, on cells; The assay used membranes prepared from CHO-ETBR cells; also called ETB receptor; endothelin receptor type B
T4 sequence (looked up): T1 sequence (P24530 27-442)
Experimental: Preparation of Membranes. CHO cell membranes are prepared by washing ETAR- or ETBR-transfected cells with phosphate buffered saline and centrifugation. The resulting cell pellets are homogenized with a polytron (settings 8 for 30 seconds×2) in 5 volumes of buffer A containing 1 mM NaHCO₃, 5 mM EDTA (pH 8.3), 5 μg/ml Leupeptin, 5 μg/ml Pepstatin A, and 40 μM phenylmethylsulfonyl fluoride. The homogenates are centrifuged at 8,000×g for 10 minutes and supernatants are then centrifuged at 40,000×g for 1 hour at 4° C. The pellets are homogenized in buffer A and recentrifuged at 40,000×g for 1 hour. The resulting pellets are homogenized in buffer A supplemented with 130 mM NaCl, 5 mM Na₂HPO₄, and 1.5 mM KH₂PO₄ and stored at −70° C.
as §1

Molecule	growth of all tested human melanoma cell lines [1]	IC50 [6]	further results
CC(C)C[C@@H]1NC(=O)[C@@H](C(C)C)NC(=O)[C@@H]2CCCN2C(=O)[C@@H](CC(=O)O)NC(=O)[C@@H](Cc2c[nH]c3ccccc23)NC1=O [BQ-123] (cyclo(L[dW][dD]P[dV]))	not	–	–
BQ-788 (peptide)	–	–	IC50 [2]: 1.2 nM
MTEQSEQTPAEYIPPMLVEVGEFTEDTLGNWHGTSPDWFFNYYW [Lasso 20]	–	–	IC50 [3]: > 5000 nM
GNWHGTAPDWFFNYYW [Lasso 1]	inhibited	–	–
ET-2: cognate endothelin ligand, 21-amino acid peptide (CSCSSWLDKECVYFCHLDIIW; ends and bridges not checked; cysteine pairing not given here; UniProt P20800 49-69, looked up)	–	–	Kd (ETBR receptors): 0.015 nM
MTEQSEQTPAEYIPPMLVEVGEFTEDTLGNWHGTAPDWFFNYYW [Lasso 18]	–	–	IC50 [3]: > 5000 nM
CCCC[C@@H](NC(=O)[C@@H](Cc1cn(C(=O)OC)c2ccccc12)NC(=O)[C@H](CC(C)(C)C)NC(=O)N1[C@H](C)CCC[C@@H]1C)C(=O)O [BQ-788]	inhibited	–	binding selectivity ETBR over ETAR [4]: selectively binds to ETBR over ETAR; IC50 [5]: 280 nM
GNWHGTSPDWFFNYY[Trp(7-OH)] (lactam N-9, also called Lasso 4) [lasso peptide having primary sequence of SEQ ID NO: 4]	–	8 nM	–
GNWHGTAPDWFFNYYNIIW (lactam N-9, also called Lasso 48) [lasso peptide having primary sequence of SEQ ID NO: 48]	–	> 70 nM	–
GNWHGTAPDWFFNYY[2Nal] (lactam N-9, also called Lasso 54) [lasso peptide having primary sequence of SEQ ID NO: 54]	–	6.3 nM	–
